In patent US20230310428A1, “EGFR INHIBITOR AND PREPARATION METHOD AND USE THEREOF” (HONGYUN BIOTECH CO., LTD., priority 2020, published 2023):
Where two headings read alike, the source gives them in different places.

Assays:
Assay in all cases: Growth inhibitory activity of compounds on BaF3 cell lines stably transfected with kinase (MTS, 48 h)
Format in all cases: cell-based
[1] = target: T1, various mutants of kinase EGFR (BaF3 cell lines stably transfected with kinase) (Homo sapiens, UniProt P00533)
T1 construct: other: BaF3 cells stably transfected with EGFR Δ19Del; MTS, 48 h; other: BaF3 cell line stably transfected with EGFR Δ19Del
Method in brief: (§1)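 First, cells were seeded and treated with an eight-point threefold dilution series starting at 10 µM (0.1% DMSO). After 48 h at 37 °C, MTS reagent was added for 1-4 h before absorbance at 490 nm. Inhibition rates gave the IC50.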

[2] = target: T2, various mutants of kinase EGFR (BaF3 cell lines stably transfected with kinase) (Homo sapiens, UniProt P00533, L858R)
T2 construct: expressed in transfected cells; host or cells: BaF3
Method in brief: as §1

[3] = target: T3, various mutants of kinase EGFR (BaF3 cell lines stably transfected with kinase) (Homo sapiens, UniProt P00533, C797S/L858R/T790M)
T3 construct: expressed in transfected cells; host or cells: BaF3
Method in brief: as §1

[4] = target: T4, various mutants of kinase EGFR (BaF3 cell lines stably transfected with kinase) (Homo sapiens, UniProt P00533, T790M/C797S, form not given)
T4 construct: other: BaF3 cells stably transfected with EGFR Δ19Del/T790M/C797S; MTS, 48; other: BaF3 cell line stably transfected with EGFR Δ19Del/T790M/C7
Method in brief: as §1

[5] = target: T5, various mutants of kinase EGFR (BaF3 cell lines stably transfected with kinase) (Homo sapiens, UniProt P00533, T790M, form not given)
T5 construct: other: BaF3 cells stably transfected with EGFR Δ19Del/T790M; MTS, 48 h; other: BaF3 cell line stably transfected with EGFR Δ19Del/T790M; MTS, 48
Method in brief: as §1

[6] = target: T6, various mutants of kinase EGFR (BaF3 cell lines stably transfected with kinase) (Homo sapiens, UniProt P00533, L858R/T790M)
T6 construct: expressed in transfected cells; host or cells: BaF3
Method in brief: as §1

[7] = BaF3 cells stably transfected with EGFR Δ19Del, read-out: IC50, growth inhibition, Δ19Del
[8] = BaF3 cells stably transfected with EGFR L858R, read-out: IC50, growth inhibition, L858R
[9] = BaF3 cells stably transfected with EGFR L858R/T790M/C797S, read-out: IC50, growth inhibition, L858R/T790M/C797S
[10] = BaF3 cells stably transfected with EGFR Δ19Del/T790M/C797S, read-out: IC50, growth inhibition, Δ19Del/T790M/C797S
[11] = BaF3 cells stably transfected with EGFR Δ19Del/T790M, read-out: IC50, growth inhibition, Δ19Del/T790M
[12] = BaF3 cells stably transfected with EGFR L858R/T790M, read-out: IC50, growth inhibition, L858R/T790M
[13] = BaF3 cell line stably transfected with EGFR Δ19Del, read-out: Δ19Del growth inhibitory activity IC50
[14] = BaF3 cell line stably transfected with EGFR L858R, read-out: L858R growth inhibitory activity IC50
[15] = BaF3 cell line stably transfected with EGFR L858R/T790M/C797S, read-out: L858R/T790M/ C797S growth inhibitory activity IC50
[16] = BaF3 cell line stably transfected with EGFR Δ19Del/T790M/C797S, read-out: Δ19Del/T790M/ C797S growth inhibitory activity IC50
[17] = BaF3 cell line stably transfected with EGFR Δ19Del/T790M, read-out: Δ19Del/ T790M growth inhibitory activity IC50
[18] = BaF3 cell line stably transfected with EGFR L858R/T790M, read-out: L858R/ T790M growth inhibitory activity IC50

T5 sequence (P00533 with tags, fused parts or gaps DEL746-750/T790M, form open): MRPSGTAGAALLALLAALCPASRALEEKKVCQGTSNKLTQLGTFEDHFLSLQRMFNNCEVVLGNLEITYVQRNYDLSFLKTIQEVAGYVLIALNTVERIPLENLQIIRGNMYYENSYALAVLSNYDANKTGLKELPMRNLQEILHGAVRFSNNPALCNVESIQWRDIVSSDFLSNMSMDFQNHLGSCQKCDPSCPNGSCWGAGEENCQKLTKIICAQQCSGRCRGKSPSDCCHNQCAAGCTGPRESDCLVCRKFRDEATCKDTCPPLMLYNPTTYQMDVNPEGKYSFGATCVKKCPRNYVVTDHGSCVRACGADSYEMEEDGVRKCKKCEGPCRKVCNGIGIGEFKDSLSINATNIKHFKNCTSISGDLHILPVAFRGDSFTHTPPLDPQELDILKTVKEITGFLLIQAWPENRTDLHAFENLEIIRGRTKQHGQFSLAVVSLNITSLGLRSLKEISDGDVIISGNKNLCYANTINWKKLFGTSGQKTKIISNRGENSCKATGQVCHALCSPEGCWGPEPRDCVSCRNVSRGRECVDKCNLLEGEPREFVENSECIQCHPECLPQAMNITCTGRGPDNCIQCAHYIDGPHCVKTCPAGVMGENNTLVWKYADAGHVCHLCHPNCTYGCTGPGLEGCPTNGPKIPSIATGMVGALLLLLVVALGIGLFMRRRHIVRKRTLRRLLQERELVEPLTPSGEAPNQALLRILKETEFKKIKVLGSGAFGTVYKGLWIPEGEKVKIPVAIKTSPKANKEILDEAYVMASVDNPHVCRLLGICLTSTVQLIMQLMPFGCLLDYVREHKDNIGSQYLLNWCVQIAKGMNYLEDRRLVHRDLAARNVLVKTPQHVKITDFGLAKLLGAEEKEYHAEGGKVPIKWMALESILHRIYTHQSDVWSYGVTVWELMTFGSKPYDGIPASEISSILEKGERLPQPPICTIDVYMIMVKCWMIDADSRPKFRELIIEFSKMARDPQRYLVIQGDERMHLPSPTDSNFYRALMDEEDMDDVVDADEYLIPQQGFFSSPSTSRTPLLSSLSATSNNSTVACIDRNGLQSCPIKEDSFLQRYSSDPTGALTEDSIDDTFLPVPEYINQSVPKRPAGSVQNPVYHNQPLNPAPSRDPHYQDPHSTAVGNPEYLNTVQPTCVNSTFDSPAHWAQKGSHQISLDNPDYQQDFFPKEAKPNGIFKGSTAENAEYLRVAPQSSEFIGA
T2 sequence (P00533 25-1210 L858R): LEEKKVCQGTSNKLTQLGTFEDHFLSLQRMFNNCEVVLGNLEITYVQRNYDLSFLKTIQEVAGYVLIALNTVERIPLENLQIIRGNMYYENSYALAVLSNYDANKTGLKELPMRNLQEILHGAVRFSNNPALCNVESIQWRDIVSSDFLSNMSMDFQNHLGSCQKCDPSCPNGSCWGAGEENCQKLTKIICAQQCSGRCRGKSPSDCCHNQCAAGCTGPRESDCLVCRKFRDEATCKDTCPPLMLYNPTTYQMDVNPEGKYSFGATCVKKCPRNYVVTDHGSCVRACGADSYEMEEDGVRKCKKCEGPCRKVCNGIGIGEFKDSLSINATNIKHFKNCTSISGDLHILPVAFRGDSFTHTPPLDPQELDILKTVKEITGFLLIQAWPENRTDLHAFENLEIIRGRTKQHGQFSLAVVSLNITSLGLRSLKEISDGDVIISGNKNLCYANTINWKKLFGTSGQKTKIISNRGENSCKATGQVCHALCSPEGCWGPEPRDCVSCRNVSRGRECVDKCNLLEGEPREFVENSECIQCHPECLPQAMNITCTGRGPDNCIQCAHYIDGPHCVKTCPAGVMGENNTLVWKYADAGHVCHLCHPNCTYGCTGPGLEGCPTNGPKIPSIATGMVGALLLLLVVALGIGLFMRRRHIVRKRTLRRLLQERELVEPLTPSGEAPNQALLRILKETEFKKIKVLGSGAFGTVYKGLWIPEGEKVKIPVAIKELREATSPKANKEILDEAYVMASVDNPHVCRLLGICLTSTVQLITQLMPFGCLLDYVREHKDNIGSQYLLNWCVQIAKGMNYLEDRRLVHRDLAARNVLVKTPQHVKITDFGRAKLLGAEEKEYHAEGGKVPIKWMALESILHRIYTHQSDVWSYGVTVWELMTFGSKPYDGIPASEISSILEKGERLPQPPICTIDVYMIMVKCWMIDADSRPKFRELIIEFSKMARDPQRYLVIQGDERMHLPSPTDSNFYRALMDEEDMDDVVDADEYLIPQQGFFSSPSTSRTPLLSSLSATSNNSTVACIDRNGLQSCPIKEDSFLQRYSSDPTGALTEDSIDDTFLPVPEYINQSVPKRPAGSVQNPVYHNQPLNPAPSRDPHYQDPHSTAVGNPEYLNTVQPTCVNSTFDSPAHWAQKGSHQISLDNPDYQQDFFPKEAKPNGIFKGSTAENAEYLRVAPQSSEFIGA
T3 sequence (P00533 25-1210 T790M/C797S/L858R): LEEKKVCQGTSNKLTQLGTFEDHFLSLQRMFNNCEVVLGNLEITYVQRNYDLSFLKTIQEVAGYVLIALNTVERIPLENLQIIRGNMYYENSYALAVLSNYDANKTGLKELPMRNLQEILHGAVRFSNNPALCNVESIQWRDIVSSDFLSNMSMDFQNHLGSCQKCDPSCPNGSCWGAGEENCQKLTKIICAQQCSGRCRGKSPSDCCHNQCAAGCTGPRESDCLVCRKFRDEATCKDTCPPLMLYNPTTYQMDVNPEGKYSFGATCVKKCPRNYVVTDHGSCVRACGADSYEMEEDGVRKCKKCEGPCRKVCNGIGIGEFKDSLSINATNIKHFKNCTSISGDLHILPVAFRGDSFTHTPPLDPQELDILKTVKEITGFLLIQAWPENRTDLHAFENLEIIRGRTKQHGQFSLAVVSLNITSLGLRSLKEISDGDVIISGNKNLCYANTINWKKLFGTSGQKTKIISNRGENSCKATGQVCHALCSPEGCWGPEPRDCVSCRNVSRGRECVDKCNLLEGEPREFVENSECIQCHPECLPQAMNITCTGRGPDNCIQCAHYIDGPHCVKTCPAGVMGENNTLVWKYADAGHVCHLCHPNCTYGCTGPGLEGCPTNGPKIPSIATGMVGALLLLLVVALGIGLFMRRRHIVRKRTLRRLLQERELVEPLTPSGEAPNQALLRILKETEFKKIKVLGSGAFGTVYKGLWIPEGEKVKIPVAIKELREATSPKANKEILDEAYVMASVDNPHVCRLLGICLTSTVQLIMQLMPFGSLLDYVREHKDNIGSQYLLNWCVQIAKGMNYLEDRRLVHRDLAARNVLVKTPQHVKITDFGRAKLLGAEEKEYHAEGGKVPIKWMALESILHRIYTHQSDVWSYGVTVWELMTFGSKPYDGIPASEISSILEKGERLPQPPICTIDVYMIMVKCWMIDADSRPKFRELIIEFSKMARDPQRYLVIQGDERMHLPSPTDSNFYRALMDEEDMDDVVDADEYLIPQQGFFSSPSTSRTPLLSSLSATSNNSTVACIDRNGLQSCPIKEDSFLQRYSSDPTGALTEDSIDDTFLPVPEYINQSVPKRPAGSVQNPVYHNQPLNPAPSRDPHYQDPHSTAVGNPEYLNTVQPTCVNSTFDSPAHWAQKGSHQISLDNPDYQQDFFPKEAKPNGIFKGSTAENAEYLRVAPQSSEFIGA
T1 sequence (P00533 with tags, fused parts or gaps DEL746-750): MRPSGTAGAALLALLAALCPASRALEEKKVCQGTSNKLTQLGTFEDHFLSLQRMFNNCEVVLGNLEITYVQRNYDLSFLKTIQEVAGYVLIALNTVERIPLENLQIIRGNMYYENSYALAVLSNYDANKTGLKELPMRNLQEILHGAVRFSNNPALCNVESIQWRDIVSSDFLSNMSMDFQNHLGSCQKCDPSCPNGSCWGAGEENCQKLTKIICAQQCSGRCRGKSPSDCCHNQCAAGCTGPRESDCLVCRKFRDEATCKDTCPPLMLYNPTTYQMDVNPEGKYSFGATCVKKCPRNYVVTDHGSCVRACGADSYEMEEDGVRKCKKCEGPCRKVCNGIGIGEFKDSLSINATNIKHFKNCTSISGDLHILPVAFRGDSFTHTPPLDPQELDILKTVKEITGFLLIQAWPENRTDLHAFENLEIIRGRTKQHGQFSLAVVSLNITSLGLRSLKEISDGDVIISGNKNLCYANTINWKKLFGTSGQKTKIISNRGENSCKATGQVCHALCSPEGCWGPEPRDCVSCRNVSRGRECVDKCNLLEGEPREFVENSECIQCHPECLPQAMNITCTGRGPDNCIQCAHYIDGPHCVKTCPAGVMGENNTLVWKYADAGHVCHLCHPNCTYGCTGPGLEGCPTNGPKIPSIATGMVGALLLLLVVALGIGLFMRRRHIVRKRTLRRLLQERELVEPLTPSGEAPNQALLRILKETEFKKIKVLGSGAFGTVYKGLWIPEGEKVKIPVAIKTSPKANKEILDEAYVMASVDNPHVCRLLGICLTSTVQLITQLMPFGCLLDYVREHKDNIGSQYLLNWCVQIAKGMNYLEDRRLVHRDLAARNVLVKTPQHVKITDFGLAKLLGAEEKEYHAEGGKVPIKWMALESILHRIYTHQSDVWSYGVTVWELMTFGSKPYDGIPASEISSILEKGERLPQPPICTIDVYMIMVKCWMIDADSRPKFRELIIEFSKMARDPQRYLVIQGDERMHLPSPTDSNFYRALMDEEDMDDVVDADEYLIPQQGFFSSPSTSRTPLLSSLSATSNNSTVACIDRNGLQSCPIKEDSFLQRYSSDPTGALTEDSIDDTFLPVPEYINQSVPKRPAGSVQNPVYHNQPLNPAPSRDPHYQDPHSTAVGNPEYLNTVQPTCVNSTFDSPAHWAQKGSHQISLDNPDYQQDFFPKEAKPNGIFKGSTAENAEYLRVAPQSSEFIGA

Compound | IC50 [1, 7] | IC50 [2, 8] | IC50 [3, 9] | IC50 [4, 10] | IC50 [5, 11] | IC50 [6, 12] | IC50 [1, 13] | IC50 [2, 14] | IC50 [3, 15] | IC50 [4, 16] | IC50 [5, 17] | IC50 [6, 18]
CCc1cc(Nc2ncc(Cl)c(Nc3ccc4nccnc4c3N(C)S(C)(=O)=O)n2)c(OC)cc1N1CCN(C)CC1 [Compound I-172] | ≤ 50 nM | ≤ 50 nM | ≤ 50 nM | ≤ 50 nM | ≤ 50 nM | ≤ 50 nM | – | – | – | – | – | –
COc1cc(N2CCC(N(C)C)C2)c(C)cc1Nc1ncc(Cl)c(Nc2ccc3nccnc3c2N(C2CC2)S(C)(=O)=O)n1 (stereo not drawn) [Compound I-246] | ≤ 50 nM | ≤ 50 nM | ≤ 50 nM | ≤ 50 nM | ≤ 50 nM | ≤ 50 nM | – | – | – | – | – | –
CCc1cc(Nc2ncc(Br)c(Nc3ccc4nccnc4c3N(C)S(C)(=O)=O)n2)c(OC)cc1N1CCC(N2CCN(C)CC2)CC1 [Compound I-3] | ≤ 50 nM | ≤ 50 nM | ≤ 50 nM | ≤ 50 nM | ≤ 50 nM | ≤ 50 nM | – | – | – | – | – | –
C=Cc1cc(Nc2nc(Nc3ccc4nccnc4c3N(C)S(C)(=O)=O)c3sccc3n2)c(OC(F)(F)F)cc1N1CCC(N2CCN(C)CC2)CC1 [II-1-9] | – | – | – | – | – | – | 500 to 2500 nM | 500 to 2500 nM | 50 to 500 nM | ≤ 50 nM | 50 to 500 nM | 50 to 500 nM
C=Cc1cc(Nc2nc(Nc3ccc4nccnc4c3N(C)S(C)(=O)=O)c3[nH]ccc3n2)c(OC(F)(F)F)cc1N1CCC(N2CCN(C)CC2)CC1 [II-1-23] | – | – | – | – | – | – | 50 to 500 nM | 50 to 500 nM | 50 to 500 nM | ≤ 50 nM | 50 to 500 nM | 50 to 500 nM
COc1cc(N2CCN(C)CC2)c(C)cc1Nc1ncc(Br)c(Nc2ccc3nccnc3c2N(C)S(C)(=O)=O)n1 [Compound I-12] | 50 to 500 nM | ≤ 50 nM | ≤ 50 nM | ≤ 50 nM | ≤ 50 nM | ≤ 50 nM | – | – | – | – | – | –
COc1cc(N2CCC(N3CCN(C)CC3)CC2)c(C(C)C)cc1Nc1nccc(Nc2ccc3nccnc3c2N(C)S(C)(=O)=O)n1 [Compound I-342] | – | – | – | – | – | – | 50 to 500 nM | 50 to 500 nM | 500 to 2500 nM | 500 to 2500 nM | 50 to 500 nM | 50 to 500 nM
CCc1cc(Nc2ncc(Cl)c(Nc3ccc4nccnc4c3N(C3CC3)S(C)(=O)=O)n2)c(OC)cc1N1CCC(N(C)C)CC1 [Compound I-162] | ≤ 50 nM | ≤ 50 nM | ≤ 50 nM | ≤ 50 nM | ≤ 50 nM | ≤ 50 nM | – | – | – | – | – | –
CCc1cc(Nc2ncc(Cl)c(Nc3ccc4nccnc4c3N(C)S(=O)(=O)CC)n2)c(OC)cc1N1CCC(N(C)C)CC1 [Compound I-117] | ≤ 50 nM | ≤ 50 nM | ≤ 50 nM | ≤ 50 nM | ≤ 50 nM | ≤ 50 nM | – | – | – | – | – | –
CCc1cc(Nc2ncc(OC)c(Nc3ccc4nccnc4c3N(C)S(C)(=O)=O)n2)c(OC)cc1N1CCC(N(C)C)C1 (stereo not drawn) [Compound I-335] | – | – | – | – | – | – | ≤ 50 nM | ≤ 50 nM | ≤ 50 nM | ≤ 50 nM | ≤ 50 nM | ≤ 50 nM
CCc1cc(Nc2nccc(Nc3ccc4nccnc4c3N(C)S(C)(=O)=O)n2)c(OC)cc1N1CCC(N2CCN(C)CC2)CC1 [Compound I-341] | – | – | – | – | – | – | ≤ 50 nM | ≤ 50 nM | ≤ 50 nM | 50 to 500 nM | ≤ 50 nM | ≤ 50 nM
CCN(c1c(Nc2nc(Nc3cc(C)c(N4CCC(N(C)C)CC4)cc3OC)ncc2Br)ccc2nccnc12)S(C)(=O)=O [Compound I-299] | ≤ 50 nM | 50 to 500 nM | ≤ 50 nM | ≤ 50 nM | ≤ 50 nM | ≤ 50 nM | – | – | – | – | – | –
CCc1cc(Nc2ncc(Br)c(Nc3ccc4nccnc4c3N(C3CC3)S(C)(=O)=O)n2)c(OC)cc1N1CCC(N(C)C)CC1 [Compound I-157] | ≤ 50 nM | ≤ 50 nM | ≤ 50 nM | ≤ 50 nM | ≤ 50 nM | ≤ 50 nM | – | – | – | – | – | –
COc1ccc(N2CCC(O)CC2)cc1Nc1ncc(Br)c(Nc2ccc3nccnc3c2N(C)S(=O)(=O)C(F)(F)F)n1 [Compound I-371] | – | – | – | – | – | – | 500 to 2500 nM | 50 to 500 nM | ≤ 50 nM | ≤ 50 nM | 50 to 500 nM | 50 to 500 nM
CCc1cc(Nc2ncc(Br)c(Nc3ccc4nccnc4c3N(C)S(=O)(=O)C(F)(F)F)n2)c(OC)nc1N1CCC(N2CCN(C)CC2)CC1 [Compound I-257] | 500 to 2500 nM | 500 to 2500 nM | 50 to 500 nM | ≤ 50 nM | 50 to 500 nM | 50 to 500 nM | – | – | – | – | – | –
COc1nc(N2CCN(C)CC2)ccc1Nc1ncc(Br)c(Nc2ccc3nccnc3c2N(C)S(C)(=O)=O)n1 [Compound I-55] | 50 to 500 nM | 50 to 500 nM | 50 to 500 nM | 50 to 500 nM | 50 to 500 nM | 50 to 500 nM | – | – | – | – | – | –
CCc1cc(Nc2ncc(Br)c(Nc3ccc4nccnc4c3N(CC)S(C)(=O)=O)n2)c(OC)cc1N1CCC(N(C)C)C1 (stereo not drawn) [Compound I-98] | 50 to 500 nM | ≤ 50 nM | ≤ 50 nM | ≤ 50 nM | ≤ 50 nM | ≤ 50 nM | – | – | – | – | – | –
CCc1cc(Nc2ncc(CC)c(Nc3ccc4nccnc4c3N(C)S(C)(=O)=O)n2)c(OC)cc1C(=O)N1CCC(N2CCN(C)CC2)CC1 [Compound I-350] | – | – | – | – | – | – | 50 to 500 nM | 50 to 500 nM | 50 to 500 nM | 50 to 500 nM | 50 to 500 nM | 50 to 500 nM
CCc1cc(Nc2ncc(Br)c(Nc3ccc4nccnc4c3N(C)S(=O)(=O)C3CC3)n2)c(OC)cc1N1CCC(N2CCN(C)CC2)CC1 [Compound I-105] | ≤ 50 nM | ≤ 50 nM | ≤ 50 nM | ≤ 50 nM | ≤ 50 nM | ≤ 50 nM | – | – | – | – | – | –
CCOc1cnc(Nc2cc(C)c(N3CCC(N4CCN(C)CC4)CC3)cc2OC)nc1Nc1ccc2nccnc2c1N(C)S(C)(=O)=O [Compound I-336] | – | – | – | – | – | – | 50 to 500 nM | 50 to 500 nM | 50 to 500 nM | 500 to 2500 nM | 50 to 500 nM | 50 to 500 nM
COc1cc(N2CCC(N3CCN(C)CC3)CC2)c(C(C)C)cc1Nc1ncc(Br)c(Nc2ccc3nccnc3c2NS(C)(=O)=O)n1 [Compound I-406] | – | – | – | – | – | – | 50 to 500 nM | 50 to 500 nM | 50 to 500 nM | 50 to 500 nM | 50 to 500 nM | 50 to 500 nM
COc1ccc(N2CCC(O)CC2)cc1Nc1ncc(Cl)c(Nc2ccc3nccnc3c2N(C)S(=O)(=O)C2CC2)n1 [Compound I-374] | – | – | – | – | – | – | 50 to 500 nM | 50 to 500 nM | ≤ 50 nM | ≤ 50 nM | 50 to 500 nM | 50 to 500 nM
COc1cc(N2CCC(N3CCN(C)CC3)CC2)c(CC2CC2)cc1Nc1ncc(C(F)(F)F)c(Nc2ccc3nccnc3c2N(C)S(C)(=O)=O)n1 [Compound I-203] | 50 to 500 nM | 50 to 500 nM | 50 to 500 nM | ≤ 50 nM | ≤ 50 nM | ≤ 50 nM | – | – | – | – | – | –
COc1cc(N2CCC(N3CCN(C)CC3)CC2)c(C)cc1Nc1ncc(F)c(Nc2ccc3nccnc3c2N(C)S(=O)(=O)C2CC2)n1 [Compound I-248] | ≤ 50 nM | ≤ 50 nM | 50 to 500 nM | ≤ 50 nM | 50 to 500 nM | ≤ 50 nM | – | – | – | – | – | –
CCN(c1c(Nc2nc(Nc3cc(C)c(N4CCN(C)CC4)cc3OC)ncc2Br)ccc2nccnc12)S(C)(=O)=O [Compound I-300] | 50 to 500 nM | 50 to 500 nM | ≤ 50 nM | ≤ 50 nM | 50 to 500 nM | ≤ 50 nM | – | – | – | – | – | –
CCc1cc(Nc2nc(Nc3ccc4nccnc4c3N(C)S(C)(=O)=O)c3sccc3n2)c(OC)cc1N1CCC(N(C)C)CC1 [II-1-16] | – | – | – | – | – | – | 500 to 2500 nM | 50 to 500 nM | 50 to 500 nM | ≤ 50 nM | 50 to 500 nM | 50 to 500 nM
